Reference: patent publication US20220125930A1, “SYSTEM AND METHOD FOR FABRICATION OF LARGE, POROUS DRUG-SILK MATERIALS USING CRYOGRANULATION” (Trustees of Tufts College, priority 2019, published 2022)

Test system: bioluminescent S. aureus Xen29
Test: Kirby-Bauer disc diffusion test of antibiotic-loaded RSFPs
Format: cell-based
Details: zones of inhibition on XEN29 cultures after 12 hours, vs blank RSFPs
Protocol: Antimicrobial activity of tobramycin sulfate (TS), gentamicin sulfate (GS) and kanamycin sulfate (KS) encapsulated in RSFPs sized 100-500 mcm was assessed by Kirby-Bauer disc diffusion tests, performed according to methods outlined in the NCCLS Approved Standard M2-A7. A stock suspension of bioluminescent S. aureus Xen29 was prepared in sterile physiological solution and turbidity (expressed as optical density; OD) was adjusted against the McFahrland standard to match the 0.5 level. A sterilized cotton swab was immersed in the bacterial suspension, and a lawn of bacteria was applied on the Luria Bertani (LB) plates. A 10-mm biopsy punch was used to cut two circular fragments from each of the freshly infected plates, and both fragments were coated with antibiotic-loaded RSFPs by quick blotting against the pool of particles. The freshly mounted samples were inserted […] II system (Caliper life Science, America). The exposure time (1 s), excitation filter (430 nm), and emission filter with emission wavelength from 575 to 650 nm (DsRed) were set prior to detection.

Row | Substance | post-processing antimicrobial activity (antibiotic function) of cryoencapsulated antibiotics
1 | tobramycin sulfate [TS] | preserved
2 | gentamicin sulfate [GS] | preserved
